[5FU] = 5-fluorouracil base replacing uracil
Legend:
[1] = system: TS, BCL2 and E2F3; experiment: Western immunoblot of miR-129 targets in HCT-116 cells; format: cell-based, human; details: colon cancer HCT-116 cells
Description: (§1) Western immunoblot analysis: Forty-eight hours after transfection, equal amounts of protein (15 μg) extracted from cells lysed in RIPA buffer with protease inhibitor (Sigma) and were separated on 10%-12% sodium dodecyl sulfate-polyacrylamide gels using standard procedures. The primary antibodies used for the analysis were rabbit anti-YAP1 monoclonal antibody (1:10000) (Cell Signaling Technologies), anti-DLCK1 (1:500) (Abcam), anti-BCL2 (1:500) (NeoMarkers), anti-MDC1 (1:500), anti-SUZ12 (1:500), anti-pChk-1 (1:500), anti beta-actin (1:500), anti-BMI-1 (1:10000) (Cell Signaling Technologies), mouse anti-human TS antibody (1:500), anti-α-tubulin (1:50000) (Santa Cruz Biotech Inc.), anti-GAPDH (1:100000) (Santa Cruz Biotech Inc.), anti-E2F3 (1:500) (Santa Cruz Biotech Inc.), Horseradish peroxidase-conjugated antibodies against mouse or rabbit (1:5000, Santa Cruz Biotech Inc.) were used as the secondary antibodies. Protein bands were visualized with autoradiography film using SuperSignal West Pico Chemiluminescent Substrate (Thermo Fischer). Western blot density was quantified using Image J software.

[2] = system: cancer cells; experiment: Real-time qRT-PCR of modified miR entry into cancer cells; format: cell-based, human; details: quantitative Real-Time PCR
Description: Real-time qRT-PCR analysis of nucleic acid expression. The expression levels of microRNAs in cancer cells were quantified. Briefly, the primers specific to the microRNA of interest and an internal control RNU44 gene were purchased from Ambion. cDNA synthesis was performed by the High Capacity cDNA Synthesis Kit (Applied Biosystems) with miRNA-specific primers. Real-time qRT-PCR was carried out on an Applied Biosystems 7500 Real-Time PCR machine with miRNA-specific primers by TaqMan Gene Expression Assay (Applied Biosystems). Expression level of the exemplary miRs of the present disclosure was calculated by the ΔΔCT method based on the internal control RNU44, normalized to the control group and plotted as relative quantification.

[3] = system: HCT-116 colon cancer cells; experiment: 5-FU treatment and cytotoxicity assay (WST-1); format: cell-based, human; details: 50 nM modified miR-129 vs 2 μM 5-FU
Description: 5-FU treatment and cytotoxicity assay: Twenty-four hours after transfection, cancer cells were plated in 96-well plates at 2×10^3 cells per well in triplicates in 100 μL of medium. After 24 hours, fresh medium containing 2 μM 5-FU alone, 50 nM native microRNA, 50 nM modified microRNA (e.g., modified miR-129), or a combination of […] with 50 nM a modified microRNA of the present disclosure e.g., modified miR-129, were added, and cells were cultured for an additional 72 hours. Cell viability was measured using the WST-1 assay.

[4] = system: metastatic human colon cancer cells; experiment: Colon cancer metastasis mouse model, intravenous miRNA delivery; format: in vivo; details: 40 μg intravenous, every other day for two weeks
Description: For in vivo miRNA delivery experiments, colon cancer cells were created that expressed the lenti-luc reporter gene by infecting parental HCT116 cells with a recombinant lentivirus. Luciferase-expressing HCT116 cells (2.0×10^6 cells per mouse) were suspended in 0.1 mL of PBS solution and was injected through tail vein of each mouse. Two weeks after injection of colon cancer cells, mice were treated via tail vein injection with 40 μg of negative control or modified miR(s) packaged with in vivo-jetPEI (Polyplus Transfection). Mice were treated every other day for 2 weeks (8 times). Following treatment, mice were screened using IVIS Spectrum In vivo Imaging System (IVIS) (PerkinElmer).

[5] = system: AGS stomach cancer cells; experiment: Cell proliferation, AGS; format: cell-based, human; details: compared to negative controls
Description: (§2) For transfections, 1×10^5 cells were plated in six-well plates and transfected with 100 nM of control non-specific miRNA (Thermo Fischer), a modified microRNA, or exogenous native microRNA after 24 hours using Oligofectamine (Thermo Fischer) following the manufacturer's protocols. For reagent free transfection, cells were plated in 6 well plates at (1×10^5) cells per well. Twenty-four hours later 100 pmol miRNA (Control, miR-15a, Mimic-1) were diluted in Optimem (Thermo Fischer) and added to the plate. Media was changed after 24 hours. Media was supplemented with 10% fetal bovine serum (Thermo Fischer). Briefly, cells were cultured in growth media (DMEM/F12 supplemented with B27, 10 ng/mL bFGF, and 20 ng/mL EGF (Life Technologies) in ultra-low attachment flasks) for up to 6 days. The spheroid cells were maintained by collection through gentle centrifugation, dissociation to single cells and replating.
(§3) Cell proliferation assay: Twenty-four hours after transfection, cells were seeded in 96-well plates at a density of 2000 cells per well. The cell proliferation assay was performed on days 1 to 5 by incubating 10 μl WST-1 (Roche Applied Science, Mannheim, Germany) in the culture medium for 1 h and reading the absorbance at 450 and 630 nm. The cell proliferation rate was calculated by subtracting the […]. Experiments for the cell proliferation assay were performed at least three times. The O.D. was calculated by subtracting the absorbance at 630 nm from that at 450 nm. Proliferation experiments were performed three times.

[6] = system: SKBR3 breast cancer cells; experiment: Cell proliferation, SKBR3; format: cell-based, human; details: SKBR3, compared to negative controls
Description: as §2, §3

[7] = system: YAP1, BMI1, DCLK1 and BCL2; experiment: Western blot of miR-15a targets in HCT-116 colon cancer stem cells; format: cell-based, human; details: three days following transfection
Description: as §1, with “[…],” for “Forty-eight hours after transfection,”, “software. […]” for “software.”

Row | Substance | target specificity to TS, BCL2 and E2F3 ([1]; Western immunoblot) | reducing the expression levels of TS, BCL2 and E2F3 ([1]; compared with unmodified (control) miR-129) | entry into cancer cells [2] | inhibiting tumor cell proliferation, potency compared with 5-FU [3] | colon cancer metastasis [4] | toxicity [4] | toxicity ([4]; listed as modified microRNA-129) | gastric cancer cell proliferation [5] | breast cancer cell proliferation [6] | protein levels of YAP1, BMI1, DCLK1 and BCL2 [7]
1 | CU^FU^FU^FU^FU^FGCGGU^FCU^FGGGCU^FU^FGC (CUUUUUGCGGUCUGGGCUUGC; RNA, [5FU] at 2, 3, 4, 5, 6, 11, 13, 18, 19, backbone not given here) [modified miR-129] | retain their target specificity | more potent than unmodified (control) miR-129 | enter cancer cells | much more potent than 2 μM 5-FU | inhibits colon cancer metastasis | did not exhibit any toxicity | no toxic side effects | inhibited | inhibited | –
2 | U^FAGCAGCACAU^FAAU^FGGU^FU^FU^FGU^FG (UAGCAGCACAUAAUGGUUUGUG; RNA, [5FU] at 1, 11, 14, 17, 18, 19, 21, backbone not given here) [modified miR-15a] | – | – | – | – | inhibit colon cancer metastasis | did not exhibit any toxicity | – | inhibited | inhibited | reduced
